This note sets out measurements from the RepoRT retention time repository (doi:10.1007/s00216-013-6954-6).

The first data set in a line: RP, Waters ACQUITY UPLC HSS T3, 150 × 2.1 mm, 1.8 µm; A: water + 0.1% formic acid; B: acetonitrile + 0.1% formic acid; gradient (min/%B) 0/5 1/5 16/95 18/95. The conditions noted are these: stereoisomer not certain.
For the compound `CCC(C)C(NC(=O)C(N)Cc1ccc(O)cc1)C(=O)O` (stereo not drawn), the LC retention time stood at 2.9 min.
As to `CCC(C)C(N)C(=O)NC(CC(C)C)C(=O)O` (stereo not drawn), the LC retention time amounted to 3.4 min.
As to `CC(C)C(NC(=O)C(N)Cc1ccccc1)C(=O)O` (stereo not drawn), the LC retention time was determined as 3 min.
As for `Cn1cnc(CC(N)C(=O)O)c1` (stereo not drawn), the LC retention time turned out to be 0.407 min.
As for `NCc1c[nH]c2ccccc12`, the LC retention time worked out at 1.8 min.
Consider `COc1cc(CC2COC(c3ccc(O)c(OC)c3)C2CO)ccc1O` (stereo not drawn), for which the LC retention time worked out at 5.6 min.
For `O=C(O)CCCCCC(=O)O`, the LC retention time turned out to be 3.47 min.
As for `COc1cc2ccc(=O)oc2cc1O`, the LC retention time was found to be 4.5 min.
With `O=Cc1c[nH]c2ccccc12`, the LC retention time is 4.8 min.
Same read-out and setting: for `CC(C)CC(N)C(=O)O` (stereo not drawn) the value was 0.795 min; for `CC(CCC(=O)O)C1CCC2C3CCC4CC(O)CCC4(C)C3CC(O)C12C` (stereo not drawn), 10.7 min; for `CC(CCC(=O)O)C1CCC2C3C(O)CC4CC(O)CCC4(C)C3CCC12C` (stereo not drawn), 10.5 min.
Consider `O=C(O)CCCC(=O)O`, for which the LC retention time was 1.14 min.
On to `CCC(C)C(NC(=O)C(N)CC(C)C)C(=O)O` (stereo not drawn), for which the LC retention time came out at 3.3 min.
Consider `NC(Cc1ccccc1)C(=O)NCC(=O)O` (stereo not drawn), for which the LC retention time was found to be 1.7 min.
Turning to `O=C(O)CNC(=O)c1ccccc1`, the LC retention time came out at 3.39 min.
For the compound `CC(CCC(=O)O)C1CCC2C3C(O)CC4CC(O)CCC4(C)C3CC(O)C12C` (stereo not drawn), the LC retention time came to 8.94 min.
With `CC(C)CC(N)C(=O)NC(Cc1ccccc1)C(=O)O` (stereo not drawn), the LC retention time worked out at 4.2 min.
Consider `Nc1ncnc2nc[nH]c12`, for which the LC retention time came out at 0.525 min.
Consider `NC(=O)NCCCC(N)C(=O)O` (stereo not drawn), for which the LC retention time is 0.457 min.
On the same count and under the same terms, for `CSCCCCCCCCC(N)C(=O)O` (stereo not drawn) the value was 5.4 min; for `O=C(O)C1CCCN1` (stereo not drawn), 0.482 min; for `CC(C)CC(N)C(=O)NC(Cc1ccc(O)cc1)C(=O)O` (stereo not drawn), 2.8 min.
As for `O=C(O)Cc1ccccc1`, the LC retention time was determined as 3.6 min.
Take `O=C(O)CCCCCCCC(=O)O`: the LC retention time was found to be 5.35 min.
Consider `CCC(C)C(N)C(=O)NC(Cc1ccccc1)C(=O)O` (stereo not drawn), for which the LC retention time worked out at 3.9 min.
In the case of `O=c1cc[nH]c(=O)[nH]1`, the LC retention time was determined as 0.638 min.
Turning to `CCC(C)C(N)C(=O)NC(C(=O)O)C(C)CC` (stereo not drawn), the LC retention time was 3.1 min.
Same read-out and setting: for `CS(=O)CCCCCCCCN=C=S` (stereo not drawn) the value was 8.1 min.
Still for that read-out and setting: the value for `CC(CCC(=O)NCCS(=O)(=O)O)C1CCC2C3C(O)CC4CC(O)CCC4(C)C3CC(O)C12C` (stereo not drawn) was 7.57 min; that for `COc1cc2ccc(=O)oc2cc1OC1OC(CO)C(O)C(O)C1O` (stereo not drawn) was 3.3 min.
As to `Cc1cc2nc3c(=O)[nH]c(=O)nc-3n(CC(O)C(O)C(O)CO)c2cc1C` (stereo not drawn), the LC retention time was 3.92 min.
Turning to `COc1cc(C=CCO)ccc1OC1OC(CO)C(O)C(O)C1O` (stereo not drawn), the LC retention time was found to be 3 min.
Take `CC(C)CC(NC(=O)C(N)C(C)C)C(=O)O` (stereo not drawn): the LC retention time was determined as 2.7 min.
Still for that read-out and setting: for `CC12CCC(=O)C=C1CCC1C2C(=O)CC2(C)C1CCC2(O)C(=O)CO` (stereo not drawn) the value was 6.61 min; for `CCC(C)C(NC(=O)C(N)Cc1ccccc1)C(=O)O` (stereo not drawn), 3.8 min; for `COc1cccc2[nH]cc(CN)c12`, 3.2 min.
For the compound `O=c1[nH]c(=O)c2[nH]c(=O)[nH]c2[nH]1`, the LC retention time stood at 0.643 min.
In the case of `CSCCCCCCCC(N)C(=O)O` (stereo not drawn), the LC retention time is 4.6 min.
Regarding `Cn1c(=O)c2c(ncn2C)n(C)c1=O`, the LC retention time was 3.46 min.
Consider `CCCCCCCCCCCCCCCC(=O)OCC(O)COP(=O)([O-])OCC[N+](C)(C)C` (stereo not drawn), for which the LC retention time is 11.6 min.
On to `CC(C)CC(N)C(=O)NC(CC(C)C)C(=O)O` (stereo not drawn), for which the LC retention time amounted to 3.6 min.
Regarding `O=C(O)C1Cc2c([nH]c3ccccc23)CN1` (stereo not drawn), the LC retention time was 3.1 min.
Still for that read-out and setting: for `CC(C)CC(NC(=O)C(N)Cc1ccc(O)cc1)C(=O)O` (stereo not drawn) the value was 3.2 min.
On to `O=C(O)c1c[nH]c2ccccc12`, for which the LC retention time amounted to 4.7 min.
On to `NC(N)=NCCCC(N)C(=O)O` (stereo not drawn), for which the LC retention time turned out to be 0.413 min.
Regarding `NCCS(=O)(=O)O`, the LC retention time came out at 0.446 min.
Turning to `Nc1nc2c(ncn2C2OC(CO)C(O)C2O)c(=O)[nH]1` (stereo not drawn), the LC retention time was determined as 1.1 min.
Still for that read-out and setting: the value for `CC(C)C(N)C(=O)NC(Cc1ccccc1)C(=O)O` (stereo not drawn) was 3.3 min.
For the compound `COn1cc(CN)c2ccccc21`, the LC retention time came to 3.7 min.
Take `O=c1[nH]cnc2c1ncn2C1OC(CO)C(O)C1O` (stereo not drawn): the LC retention time was 0.839 min.
On to `O=c1ccc2cc(OC3OC(CO)C(O)C(O)C3O)c(O)cc2o1` (stereo not drawn), for which the LC retention time came to 2.9 min.
For the compound `O=C(O)CCCCC(=O)O`, the LC retention time came out at 2.33 min.
Turning to `O=Cc1c[nH]c2cccc(O)c12`, the LC retention time was 5.1 min.
As to `Cc1cn(C2CC(O)C(CO)O2)c(=O)[nH]c1=O` (stereo not drawn), the LC retention time turned out to be 1.6 min.
With `CCCCCCCCC=CCCCCCCCC(=O)OCC(O)COP(=O)(O)OCC[N+](C)(C)C` (stereo not drawn), the LC retention time was 12 min.
The same measure, in the same setting: for `CSCCC(N)C(=O)O` (stereo not drawn) the value was 0.643 min; for `Nc1ccc(C(=O)O)cc1`, 1.95 min; for `O=C1CCC(C(=O)O)N1` (stereo not drawn), 0.687 min.
Turning to `NCC(=O)NC(Cc1ccccc1)C(=O)O` (stereo not drawn), the LC retention time is 2.3 min.
Take `CC(CCC(=O)NCC(=O)O)C1CCC2C3C(O)CC4CC(O)CCC4(C)C3CC(O)C12C` (stereo not drawn): the LC retention time worked out at 7.92 min.
With `CCC(C)C(N)C(=O)O` (stereo not drawn), the LC retention time was 0.795 min.
In the case of `CC12CCC(=O)C=C1CCC1C2C(O)CC2(C)C1CCC2(O)C(=O)CO` (stereo not drawn), the LC retention time was determined as 6.56 min.
Still for that read-out and setting: for `CC(C)CC(N)C(=O)N1CCCC1C(=O)O` (stereo not drawn) the value was 2.62 min; for `O=C(O)C(O)Cc1ccccc1` (stereo not drawn), 4.37 min.
The same measure, in the same setting: for `COc1cc(C=CCO)cc(OC)c1OC1OC(CO)C(O)C(O)C1O` (stereo not drawn) the value was 3.2 min.
As for `CC(C(=O)O)C(=O)O`, the LC retention time came out at 0.733 min.
With `CC(C)CC(NC(=O)C(N)Cc1ccccc1)C(=O)O` (stereo not drawn), the LC retention time was 4.1 min.

The nature of another data set: RP, Waters ACQUITY UPLC HSS T3, 100 × 1 mm, 1.8 µm; A: water + 0.1% formic acid, pH 3; B: acetonitrile + 0.1% formic acid, pH 3; gradient (min/%B) 0/5 1/5 16/95 18/95 20/5. The conditions noted are these: stereoisomer not certain.
In the case of `O=C(O)CNC(=O)c1ccccc1` [Hippuric acid], the LC retention time was determined as 3.39 min.
On to `CC(C)CC(N)C(=O)N1CCCC1C(=O)O` (stereo not drawn) [H-Leu-Pro-OH], for which the LC retention time was found to be 2.6 min.
Take `CC(C)CC(N)C(=O)NC(Cc1ccccc1)C(=O)O` (stereo not drawn) [H-Leu-Phe -OH]: the LC retention time worked out at 4.2 min.
Consider `CC(CCC(=O)O)C1CCC2C3CCC4CC(O)CCC4(C)C3CC(O)C12C` (stereo not drawn) [Deoxycholic acid], for which the LC retention time came to 10.7 min.
In the case of `Nc1nc2c(ncn2C2OC(CO)C(O)C2O)c(=O)[nH]1` (stereo not drawn) [Guanosine], the LC retention time is 1.1 min.
With `NCc1c[nH]c2ccccc12` [Indol-3-ylmethylamine (I3CH2NH2)], the LC retention time was determined as 1.8 min.
For the compound `CSCCC(N)C(=O)O` (stereo not drawn) [Methionine], the LC retention time amounted to 0.643 min.
As for `CC(C)CC(N)C(=O)NC(CC(C)C)C(=O)O` (stereo not drawn) [H-Leu-Leu-OH], the LC retention time is 3.6 min.
As to `CCC(C)C(N)C(=O)NC(Cc1ccccc1)C(=O)O` (stereo not drawn) [H-Ile-Phe-OH], the LC retention time is 3.9 min.
Turning to `Cc1cc2nc3c(=O)[nH]c(=O)nc-3n(CC(O)C(O)C(O)CO)c2cc1C` (stereo not drawn) [Riboflavin], the LC retention time was determined as 3.92 min.
